# From publication PMC12655351, “Synthesis and Anticancer Activity Evaluation of New 5-((5-Nitrofuran-2-yl)allylidene)-2-thioxo-4-thiazolidinones” (Pharmaceuticals, 2025)
# Tests used:
# Leukemia = test: cells; conditions: Homo sapiens; for GI50: read-out: MG_MID GI50; for CC50: read-out: MG_MID LC50
# SK-MEL-28 = conditions: for TGI: SK-MEL-28, 48 h
# Breast cancer = test: cells; conditions: Homo sapiens; for GI50: read-out: MG_MID GI50; for CC50: read-out: MG_MID LC50
# CNS cancer [1] = conditions: CNS cancer subpanel
# A498 [2] = conditions: for TGI: A498, 48 h
# NCI/ADR-RES = conditions: 48 h
# UACC-257 = conditions: UACC-257, 48 h
# CAKI-1 = conditions: for TGI: CAKI-1, 48 h
# Colon cancer = test: NCI-60 SRB screen, subpanel; conditions: for MG_MID TGI: Colon cancer subpanel
# UO-31 = test: cells; conditions: Homo sapiens, UO-31, 48 h; for CC50: read-out: LC50, UO-31, 48 h
# EKVX = test: NCI-60 SRB screen; conditions: 48 h; for GI50 / CC50: Homo sapiens; for CC50: read-out: LC50, EKVX, 48 h
# SR [3] = conditions: 48 h
# HCC-2998 = conditions: for growth GP: HCC-2998, 10 μM, 48 h; for TGI: HCC-2998, 48 h
# A498 [4] = test: cells; conditions: Homo sapiens, A498, 48 h
# SK-OV-3 = test: cells; conditions: Homo sapiens, SK-OV-3, 48 h; for CC50: read-out: LC50, SK-OV-3, 48 h
# OVCAR-3 = test: cells; conditions: Homo sapiens, OVCAR-3, 48 h
# 786-0 = conditions: 786-0, 48 h
# MDA-MB-468 = test: NCI-60 SRB screen; conditions: MDA-MB-468, 48 h; for GI50 / CC50: Homo sapiens; for CC50: read-out: LC50, MDA-MB-468, 48 h
# PC-3 = test: cells; conditions: Homo sapiens, PC-3, 48 h
# HCT-15 = test: NCI-60 SRB screen; conditions: HCT-15, 48 h
# NCI-H460 = test: NCI-60 SRB screen; conditions: NCI-H460, 48 h; for GI50 / CC50: Homo sapiens; for CC50: read-out: LC50
# CNS cancer [5] = test: cells; conditions: Homo sapiens; for GI50: read-out: MG_MID GI50; for CC50: read-out: MG_MID LC50
# SR [6] = test: cells; conditions: Homo sapiens, 48 h
# MOLT-4 = conditions: MOLT-4, 48 h
# Melanoma [7] = test: cells; conditions: Homo sapiens; for GI50: read-out: MG_MID GI50; for CC50: read-out: MG_MID LC50
# NCI-H23 = conditions: NCI-H23, 48 h
# SF-295 = test: NCI-60 SRB screen; conditions: SF-295, 48 h; for GI50 / CC50: Homo sapiens; for CC50: read-out: LC50, SF-295, 48 h
# SN12C [8] = conditions: SN12C, 48 h
# OVCAR-4 = conditions: OVCAR-4, 48 h
# Melanoma [9] = conditions: Melanoma subpanel
# SN12C [10] = test: cells; conditions: Homo sapiens, 48 h; for CC50: read-out: LC50, SN12C, 48 h
# SNB-75 = test: NCI-60 SRB screen; conditions: SNB-75, 48 h; for GI50 / CC50: Homo sapiens; for CC50: read-out: LC50, SNB-75, 48 h
smiles,measurement,setting,value
"CC(C)C(C(=O)O)N1C(=O)/C(=C/C=C/c2ccc([N+](=O)[O-])o2)SC1=S (stereo not shown) [5b, 3-Methyl-2-((Z)-5-((E)-3-(5-nitrofuran-2-yl)allylidene)-4-oxo-2-thioxothiazolidin-3-yl)butanoic acid]",GI50,Leukemia,0.84 µM
same,CC50,Leukemia,> 100 µM
same,growth GP,"SK-MEL-28; SK-MEL-28, 10 μM, 48 h",-95.39%
same,TGI,SK-MEL-28,2.83 µM
same,GI50,Breast cancer,1.22 µM
same,CC50,Breast cancer,24.6 µM
same,MG_MID TGI,CNS cancer [1],2.79 µM
same,TGI,A498 [2],4.81 µM
same,TGI,NCI/ADR-RES,4.13 µM
same,TGI,UACC-257,3.27 µM
same,growth GP,"CAKI-1; CAKI-1, 10 μM, 48 h",-97.14%
same,TGI,CAKI-1,2.46 µM
same,MG_MID TGI,Colon cancer,2.48 µM
same,GI50,"Colon cancer; Homo sapiens, read-out: MG_MID GI50",1.03 µM
same,CC50,"Colon cancer; Homo sapiens, read-out: MG_MID LC50",7.06 µM
same,GI50,UO-31,1.33 µM
same,CC50,UO-31,7.27 µM
same,TGI,EKVX,4.80 µM
same,GI50,EKVX,2.01 µM
same,CC50,EKVX,13.9 µM
same,TGI,SR [3],1.89 µM
same,growth GP,HCC-2998,-95.90%
same,TGI,HCC-2998,3.22 µM
same,GI50,A498 [4],2.69 µM
same,GI50,SK-OV-3,2.79 µM
same,CC50,SK-OV-3,33.9 µM
same,GI50,OVCAR-3,1.34 µM
same,TGI,786-0,3.70 µM
same,GI50,MDA-MB-468,1.37 µM
same,CC50,MDA-MB-468,6.16 µM
same,TGI,MDA-MB-468,2.90 µM
same,GI50,PC-3,1.8 µM
same,TGI,HCT-15,2.18 µM
same,GI50,HCT-15; Homo sapiens,0.73 µM
same,CC50,"HCT-15; Homo sapiens, read-out: LC50, HCT-15, 48 h",5.32 µM
same,GI50,NCI-H460,1.76 µM
same,CC50,NCI-H460,34.5 µM
same,TGI,NCI-H460,4.93 µM
same,GI50,CNS cancer [5],1.28 µM
same,CC50,CNS cancer [5],5.93 µM
same,GI50,SR [6],0.32 µM
same,CC50,SR [6]; read-out: LC50,> 100 µM
same,TGI,MOLT-4,10.7 µM
same,GI50,Melanoma [7],1.25 µM
same,CC50,Melanoma [7],5.59 µM
same,TGI,NCI-H23,3.41 µM
same,GI50,SF-295,1.83 µM
same,CC50,SF-295,6.69 µM
same,TGI,SF-295,3.49 µM
same,TGI,SN12C [8],2.15 µM
same,TGI,OVCAR-4,6.72 µM
same,MG_MID TGI,Melanoma [9],2.68 µM
same,GI50,SN12C [10],0.79 µM
same,CC50,SN12C [10],4.96 µM
same,GI50,SNB-75,0.68 µM
same,CC50,SNB-75,4.89 µM
same,TGI,SNB-75,1.98 µM
"O=C(O)CCN1C(=O)/C(=C/C=C/c2ccc([N+](=O)[O-])o2)SC1=S [12b, 3-((Z)-5-((E)-3-(5-Nitrofuran-2-yl)allylidene)-4-oxo-2-thioxothiazolidin-3-yl)propanoic acid]",GI50,Leukemia,0.66 µM
same,CC50,Leukemia,> 100 µM
same,TGI,SK-MEL-28,3.05 µM
same,GI50,Breast cancer,1.09 µM
same,CC50,Breast cancer,37.4 µM
same,MG_MID TGI,CNS cancer [1],4.09 µM
same,growth GP,"A498 [2]; A498, 10 μM, 48 h",-96.94%
same,TGI,A498 [2],27.4 µM
same,TGI,NCI/ADR-RES,4.28 µM
same,TGI,UACC-257,4.08 µM
same,TGI,CAKI-1,2.74 µM
same,MG_MID TGI,Colon cancer,2.93 µM
same,GI50,UO-31,1.05 µM
same,CC50,UO-31,4.84 µM
same,TGI,EKVX,9.26 µM
same,GI50,EKVX,2.69 µM
same,CC50,EKVX,31.1 µM
same,TGI,SR [3],1.15 µM
same,growth GP,HCC-2998,-95.81%
same,TGI,HCC-2998,9.26 µM
same,GI50,A498 [4],14.3 µM
same,GI50,SK-OV-3,4.7 µM
same,CC50,SK-OV-3,43.7 µM
same,GI50,OVCAR-3,1.36 µM
same,TGI,786-0,3.54 µM
same,GI50,MDA-MB-468,0.66 µM
same,CC50,MDA-MB-468,5.71 µM
same,TGI,MDA-MB-468,2.14 µM
same,GI50,PC-3,2.48 µM
same,TGI,HCT-15,3.50 µM
same,GI50,NCI-H460,1.33 µM
same,CC50,NCI-H460,6.46 µM
same,TGI,NCI-H460,2.93 µM
same,GI50,CNS cancer [5],1.62 µM
same,CC50,CNS cancer [5],12.3 µM
same,GI50,SR [6],0.3 µM
same,TGI,MOLT-4,2.56 µM
same,GI50,Melanoma [7],1.14 µM
same,CC50,Melanoma [7],5.56 µM
same,TGI,NCI-H23,3.37 µM
same,GI50,SF-295,2.17 µM
same,CC50,SF-295,16.3 µM
same,TGI,SF-295,5.21 µM
same,growth GP,SN12C [8]; 10 μM,-95.84%
same,TGI,SN12C [8],2.32 µM
same,TGI,OVCAR-4,3.79 µM
same,MG_MID TGI,Melanoma [9],2.60 µM
same,GI50,SN12C [10],1.07 µM
same,CC50,SN12C [10],5.04 µM
same,GI50,SNB-75,1.1 µM
same,CC50,SNB-75,14.1 µM
same,TGI,SNB-75,3.67 µM
